Measurements: paper PMC10366102, “Dose escalation and expansion cohorts in patients with advanced breast cancer in a Phase I study of the CDK7-inhibitor samuraciclib” (Nature Communications, 2023)

Legend:
[1] = test system: HR+/HER2− advanced breast cancer patients post-CDK4/6 inhibitor; conditions: female, human, in vivo
Description: In each cohort the dose of fulvestrant was 500 mg every 28 ± 2 days, with an additional 500 mg dose given 14 ± 2 days after the first dose. Cohort 1 tested samuraciclib 240 mg OD continuous dosing. If the DLT stopping criteria were not met, Cohort 2 commenced enrollment at the Module 1A MTD. Patients underwent regular safety monitoring and 8-week scans reported using RECIST V1.1[32].
As Module 1A was a ‘first time in human’ safety study, initial efficacy was evaluated as a secondary endpoint using the DCR, defined as the percentage of patients with a complete response (CR), PR or stabilization of disease at first on treatment RECIST assessment. To allow for the evaluation of longer-term benefit, Module 1B-1 and Module 2A used the CBR as a secondary endpoint, defined as the percentage of patients with CR or PR or stabilization of disease for at least 24 weeks between enrollment and disease progression or death due to any cause. In addition, the ORR was assessed, defined as the percentage of patients who had at least 1 objective response (CR or PR) prior to any evidence of progression. […] Statistical analyses of PFS using the Kaplan-Meier method were performed on the ITT population - defined as all enrolled patients. AEs were summarized from the Safety Population - defined as all patients who received at least 1 dose of samuraciclib - using the MedDRA system organ class (SOC), preferred term (PT), and graded according to CTCAE V5.0 (Supplementary Information).
DLTs recorded in the first cycle. Patients were considered evaluable if they completed the first cycle or
discontinued therapy in the first cycle due to a DLT. Patients in a cohort were replaced if they could not
complete the first cycle unless this was due to a DLT.
Part A was planned to have two dose cohorts with up to 6 evaluable patients to be enrolled per
cohort. In each cohort, the dose of fulvestrant was fixed at the standard dose of 500mg given at intervals
of 28±2 days with an additional 500mg dose given 14±2 days after the first dose. Fulvestrant was
administered as two consecutive slow intramuscular (IM) injections (1-2 minutes) of 250mg in 5 mL,
one in each buttock (gluteal area). Pre-and peri-menopausal women also had to have commenced
treatment with a luteinizing hormone-releasing hormone (LHRH) agonist at least 4 weeks prior to first
dose of study medication. Patients continued to receive treatment in 28-day cycles until they no longer
gained clinical benefit or they discontinued treatment.
Cohort 1 tested samuraciclib at 240mg OD as monotherapy, which is approximately 33% lower than the
current maximum tolerated dose (MTD) of 360mg. If no DLT was recorded in Cycle 1 in the first 3
evaluable patients, Cohort 2 commenced enrolment at 360mg of samuraciclib OD.
DLT in Cohort 1, a further 3 evaluable patients were assessed.
started enrolment. If ≥ 2/3 or ≥ 2/6 patients in Cohort 1 experienced a DLT, dose escalation was
stopped. In Cohort 2, if 0/3 or 1/3 evaluable patients experienced a DLT, the cohort was expanded to 6
patients. If ≥ 2/3 or ≥ 2/6 patients experienced a DLT, the Cohort 1 dosing regimen (samuraciclib at
240mg and fulvestrant at 500mg) was determined as the preliminary Phase 2 dosing regimen. If < 2/6
considered the recommended Phase 2 regimen.
The SRC was convened to decide whether and when to open the second samuraciclib dosing cohort and
which dosing regimen to advance to randomized Phase 2 testing. If the SRC considered safety and/or
patients who had at least one response of complete response (CR) or partial response (PR) prior to any
evidence of progression. The percentage change in tumor size was derived at each tumor imaging
assessment by the best percentage change from baseline in the sum of the diameters of target lesions. In
Module 1A initial efficacy was evaluated using the disease control rate (DCR) defined as percentage of
participants with a complete response (CR) or partial response (PR) or stabilization of disease at first on
treatment RECIST assessment.

[2] = test system: MCF7 cell line; test: Antibody validation, immunohistochemistry of treated cells, pCDK1/2/3; assay type: cell-based, human; conditions: MCF7 cell line treated with samuraciclib
Description: SUPPLEMENTARY TABLE 12: ANTIBODIES USED
Antibody Application Supplier & Description Dilution/ Validation […]
RNA pol II Immunohistoche Abcam Rabbit Immuno- Immunohistochemistry: pSer5 mistry (Fig 3); ab193467 monoclonal histochemistry: Positive nuclear staining Flow cytometry [EPR19015] to 1 in 8000 in normal spleen
(Supplementary RNA 0.02 µg/mL samples. Significant
Figure 5) polymerase II reduction in staining in CTD repeat Flow cytometry: MCF7 cell line treated
YSPTSPS 1 in 100 with samuraciclib. […]
intensity of labelling in […]
pCDK1/2/ Immunohistoche Abcam Rabbit 1 in 500 Immunohistochemistry:
3 mistry (Fig 3) ab201008 monoclonal 1.2 μg/mL Positive nuclear staining [EPR19546] to in normal tonsil samples.
T161) + CDK2 staining in MCF7 cell
(phospho T160) line treated with
Goat anti- Flow cytometry Abcam Polyclonal goat 1 in 1000 Flow cytometry: No Rabbit IgG (Supplementary ab150077 anti-rabbit IgG 2.0 μg/mL significant binding to H&L Figure 5) H&L peripheral blood
AlexaFluor conjugated to mononucleated cells in 488 AlexaFluor 488 absence of primary

[3] = test system: CYP2C8; design: method as in ref IB; conditions: human microsomes; ref IB; cited from earlier work

## CC(C)c1cnn2c(NCc3ccccc3)cc(NC[C@H]3CCNC[C@@H]3O)nc12 [samuraciclib, Samuraciclib]
[1]
  Discontinued due to related gastrointestinal AEs: 23%
  Discontinued due to unrelated AEs: 5 patients
  Drug-related: ALT increased: 3 (9.7) patients (%)
  Drug-related: AST increased: 4 (12.9) patients (%)
  Drug-related: Abdominal pain: 7 (22.6) patients (%)
  Drug-related: Abdominal pain (second line so named): 4 (12.9) patients (%)
  Drug-related: Anaemia: 2 (6.5) patients (%)
  Drug-related: Constipation: 2 (6.5) patients (%)
  Drug-related: Decreased appetite: 9 (29.0) patients (%)
  Drug-related: Dehydration: 2 (6.5) patients (%)
  Drug-related: Diarrhoea: 28 (90.3) patients (%)
  Drug-related: Dry mouth: 2 (6.5) patients (%)
  Drug-related: Dry skin: 2 (6.5) patients (%)
  Drug-related: Dysgeusia: 4 (12.9) patients (%)
  Drug-related: Dysphagia: 3 (9.7) patients (%)
  Drug-related: Fatigue: 11 (35.5) patients (%)
  Drug-related: Flatulence: 2 (6.5) patients (%)
  Drug-related: Headache: 4 (12.9) patients (%)
  Drug-related: Mouth ulceration: 2 (6.5) patients (%)
  Drug-related: Mucosal inflammation: 2 (6.5) patients (%)
  Drug-related: Muscular weakness: 2 (6.5) patients (%)
  Drug-related: Nausea: 25 (80.6) patients (%)
  Drug-related: Rash: 3 (9.7) patients (%)
  Drug-related: Stomatitis: 2 (6.5) patients (%)
  Drug-related: Taste disorder: 2 (6.5) patients (%)
  Drug-related: Thrombocytopenia: 3 (9.7) patients (%)
  Drug-related: Vomiting: 23 (74.2) patients (%)
  Drug-related: Weight decreased: 2 (6.5) patients (%)
  Participants with any drug-related TEAE: 30 (96.8) patients (%)
[2]
  pCDK1/2/3 staining: Significant reduction in
[3]
  IC50: > 50 µM
